Results on ten molecules are retold here after ChEMBL document CHEMBL1126397, “Synthesis of acid stable 5-o-fluoromethyl phosphonates of nucleosides. Evaluation as inhibitors of reverse transcriptase” (Bioorg Med Chem Lett, 1992).

For this assay, the target named is T1, Avian myoblastosis virus polyprotein II (Avian myeloblastosis virus, UniProt Q86831).
T1 sequence (Q86831 whole entry): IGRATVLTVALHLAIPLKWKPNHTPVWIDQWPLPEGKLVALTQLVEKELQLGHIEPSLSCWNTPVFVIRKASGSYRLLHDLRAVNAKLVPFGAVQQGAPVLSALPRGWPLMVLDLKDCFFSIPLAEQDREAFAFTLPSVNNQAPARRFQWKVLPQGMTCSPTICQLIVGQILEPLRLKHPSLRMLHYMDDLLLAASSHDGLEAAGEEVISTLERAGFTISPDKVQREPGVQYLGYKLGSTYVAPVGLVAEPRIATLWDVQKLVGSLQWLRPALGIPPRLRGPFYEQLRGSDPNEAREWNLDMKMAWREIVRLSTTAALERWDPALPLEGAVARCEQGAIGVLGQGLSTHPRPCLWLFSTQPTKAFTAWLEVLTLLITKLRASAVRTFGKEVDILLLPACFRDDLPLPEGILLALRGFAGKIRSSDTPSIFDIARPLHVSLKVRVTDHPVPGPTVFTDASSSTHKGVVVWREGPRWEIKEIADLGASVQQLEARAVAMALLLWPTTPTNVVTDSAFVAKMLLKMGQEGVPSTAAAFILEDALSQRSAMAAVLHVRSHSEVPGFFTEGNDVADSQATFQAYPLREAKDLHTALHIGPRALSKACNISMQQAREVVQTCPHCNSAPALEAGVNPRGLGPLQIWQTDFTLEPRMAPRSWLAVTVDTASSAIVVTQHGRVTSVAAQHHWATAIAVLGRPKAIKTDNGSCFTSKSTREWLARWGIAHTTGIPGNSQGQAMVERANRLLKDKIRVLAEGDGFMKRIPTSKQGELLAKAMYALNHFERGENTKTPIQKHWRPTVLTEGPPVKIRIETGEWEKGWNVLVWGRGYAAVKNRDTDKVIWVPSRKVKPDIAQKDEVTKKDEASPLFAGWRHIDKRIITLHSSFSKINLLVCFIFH
Briefly: Inhibitor of avian myeloblastosis virus AMV reverse transcriptase.
`Cc1cn(C2C=CC(COP(=O)(O)C(F)F)O2)c(=O)[nH]c1=O` (stereo not given) had a half-maximal inhibitory concentration (IC50) of 887 µM.

With `Cc1cn(C2C=CC(COP(=O)(O)C(F)(F)F)O2)c(=O)[nH]c1=O` (stereo not given), the half-inhibitory concentration (IC50) was 842 µM.

Consider `Cc1cn(C2CC(N=[N+]=[N-])C(COP(=O)(O)C(F)F)O2)c(=O)[nH]c1=O` (stereo not given), for which the IC50 is 118 µM.

For the molecule `Cc1cn(C2CC(N=[N+]=[N-])C(COP(=O)(O)C(F)(F)F)O2)c(=O)[nH]c1=O` (stereo not given), it took 37.6 µM to reach half-maximal inhibition (IC50). As for `O=c1[nH]c(=O)n([C@H]2C[C@H](O)[C@@H](COP(=O)(O)C(F)F)O2)cc1F`, the figure is 375 µM; as for `O=c1[nH]c(=O)n([C@H]2C[C@H](O)[C@@H](COP(=O)(O)C(F)(F)F)O2)cc1F`, 82 µM; as for `Cc1cn(C2C=CC(COP(=O)(O)CF)O2)c(=O)[nH]c1=O` (stereo not given), 281 µM.

In turn, `Cc1cn(C2CC(N=[N+]=[N-])C(COP(=O)(O)CF)O2)c(=O)[nH]c1=O` (stereo not given) showed an IC50 of 127 µM. Take `Nc1nc(O)c2ncn(C3O[C@H](COP(=O)(O)C(F)(F)F)[C@@H](O)[C@H]3O)c2n1` (stereo not given in full): the concentration for half-maximal inhibition (IC50) is 145 µM. As for `Nc1ccn(C2O[C@H](COP(=O)(O)C(F)F)[C@@H](O)[C@H]2O)c(=O)n1` (stereo not given in full), the figure is 171 µM.
